Values quoted from earlier work in patent publication US20250235554A1, “METHODS FOR IMPROVING ADENO-[…] (AAV) […]” (Novartis AG, priority 2021, published 2025).

System: glymphatic flow
Details: mice and rats

Cc1cccc([C@H](C)c2cnc[nH]2)c1C [Dexmedetomidine]
effect on brain and spinal cord exposure of intrathecally administered drugs: increases brain and spinal cord drug exposure of intrathecally administered drugs
